PMC6470885 (Molecules, 2019)
“And” between values parts separate entries of the source, which are not always exact repeats. Identical values can stand only once. Non-standard residues stand in square brackets, D forms with d. Residues, ends and D or L forms follow the SMILES beside them. *: point of attachment. Palmitoyl = CCCCCCCCCCCCCCCC(=O)*; PEG4 = NCCOCCOCCOCCOCCC(=O)O

Tests used:
[1] = system: HIV-1 T20-resistant strains; settings: ratio of IC50s
Method: (§3) Inhibitory activities of peptides on infection by HIV-1 X4 strain IIIB, R5 strain Bal, and T20-, T2635-, HP23-resistant strains were determined as previously described [42]. For each well of a 96-well plate, 50 μL of a peptide were mixed with 50 μL of 100 × TCID50 (50% tissue culture infective doses) of HIV-1 live virus and incubated at 37 °C for 30 min. Afterwards, 2 × 10^4 MT-2 (for X4 virus) or CEMx174 5.25 M7 cells (for R5 virus) were added. After overnight culture, the supernatant was replaced with fresh RPMI-1640 medium containing 10% fetal bovine serum (FBS). After further culture at 37 °C for three days, 50 μL of the culture medium were collected and mixed with equal volume of 5% (v/v) Triton X-100. The p24 antigen, which represents HIV-1 quantity, was detected by ELISA. Briefly, the collected mixtures were added to a plate coated with anti-HIV Immune Globulin (HIVIG) from the NIH AIDS Reagent Program. Anti-p24 mAb 183, rabbit anti-mouse IgG-HRP (Dako, Glostrup, Denmark) and substrate 3,3,5,5-TMB (Sigma-Aldrich, New York, NY) were added and washed away sequentially. The absorbance at 450 nm (A450) was determined by a Multi-Detection Microplate Reader (Ultra 384, Tecan, Tokyo, Japan). IC50s were calculated using Calcusyn software (Biosoft, Ferguson, MO), and the lines of best fit were drawn using GraphPad Prism 8 software (La Jolla, CA).

HIV-1IIIB (X4 virus) [2] = assay type: cell-based; settings: ratio of IC50s
Method: as §3

HIV-1IIIB = assay: Ex vivo anti-HIV-1 activity of sera of peptide-treated mice; assay type: in vivo; settings: ICR mice, 5 mg/kg i.p.; serum tested against HIV-1IIIB
Method: (§1) Evaluation of ex vivo anti-HIV-1 activity of a peptide in a mouse model was performed as described recently. This mouse experiment was conducted under ethical guidelines and approved by the Institutional Laboratory Animal Care and Use Committee at Fudan University (20160927-2). ICR mice used for this study were bred at the Department of Laboratory Animal Science of Fudan University. Briefly, 5 mg/kg of a peptide were intraperitoneally (i.p.) injected into four female ICR mice (8 weeks). […] Anti-HIV-1 activities of the mouse serum samples were determined in the same way as described above. The highest dilution-fold of the serum causing 50% inhibition of HIV-1IIIB infection (IC50) was calculated.

MT-2 cells = assay: Cytotoxicity, CCK8 assay, MT-2 cells
Method: (§2) A peptide at graded concentration was incubated with 2 × 10^5/mL cells at 37 °C for 3 days before adding 10 μL of CCK8 reagent (Sigma-Aldrich). After another round of incubation at 37 °C for 2 h, A450 was measured with the Multi-Detection Microplate Reader. Cell viability was calculated by […].

HIV-1Bal (R5 virus) = assay type: cell-based; settings: ratio of IC50s
Method: as §3

[3] = system: HIV-1 HP23-resistant strains; settings: ratio of IC50s
Method: (§4) For each well of a 96-well plate, 50 μL of a peptide were mixed with 50 μL of 100 × TCID50 (50% tissue culture infective doses) of HIV-1 live virus and incubated at 37 °C for 30 min. Afterwards, 2 × 10^4 MT-2 (for X4 virus) or CEMx174 5.25 M7 cells (for R5 virus) were added. After overnight culture, the supernatant was replaced with fresh RPMI-1640 medium containing 10% fetal bovine serum (FBS). After further culture at 37 °C for three days, 50 μL of the culture medium were collected and mixed with equal volume of 5% (v/v) Triton X-100. The p24 antigen, which represents HIV-1 quantity, was detected by ELISA. Briefly, the collected mixtures were added to a plate coated with anti-HIV Immune Globulin (HIVIG) from the NIH AIDS Reagent Program. Anti-p24 mAb 183, rabbit anti-mouse IgG-HRP (Dako, Glostrup, Denmark) and substrate 3,3,5,5-TMB (Sigma-Aldrich, New York, NY) were added and washed away sequentially. The absorbance at 450 nm (A450) was determined by a Multi-Detection Microplate Reader (Ultra 384, Tecan, Tokyo, Japan). IC50s were calculated using Calcusyn software (Biosoft, Ferguson, MO), and the lines of best fit were drawn using GraphPad Prism 8 software (La Jolla, CA).

HIV-1IIIB (X4 virus) [4] = assay: Virus wash and nonwash assay; assay type: cell-based; settings: HIV-1IIIB incubated with peptide 4 °C 30 min, unbound peptide washed away, then MT-2 cells
Method: To determine whether a peptide binds with the viral particle in order to execute its anti-HIV-1 activity, virus wash and nonwash assays were performed as previously described. Briefly, HIV-1IIIB (50 × TCID50) were incubated with a peptide at 4 °C for 30 min, followed by washes of the pretreated viral particles to remove the unbound peptide (control: without washes) before being added to 2 × 10^4 MT-2 cells. After culture at 37 °C overnight, the supernatant was replaced by fresh RPMI-1640 medium containing 10% FBS. The inhibitory activity of the virus-bound peptide in the wash group and free peptide in the nonwash group was determined as described above.

M7 cells = assay: Cytotoxicity, CCK8 assay, M7 cells
Method: as §2

[5] = Serum half-life and pharmacokinetic parameters in mice
Method: as §1

[6] = system: cell-cell fusion between H9/IIIB cells and MT-2 cells; assay: HIV-1-mediated cell-cell fusion (dye transfer assay); assay type: cell-based; settings: ratio of IC50s
Method: A dye transfer assay was performed to detect HIV-1 Env-mediated cell-cell fusion as described previously. Briefly, for each well of a 96-well plate, 2 × 10^3 H9/IIIB cells labeled with the fluorescent reagent Calcein AM (Molecular Probes, Inc., Eugene, Oregon) were incubated with a CHR-peptide at 37 °C for 30 min. Afterwards, 10^4 MT-2 cells were added and incubated at 37 °C for 2 h. The fused and unfused Calcein-labeled H9/IIIB cells were counted under an inverted fluorescence microscope (Zeiss, Oberkochen, Germany). The IC50 values were calculated by using the Calcusyn computer program (Biosoft, Ferguson, MO).

[7] = system: HIV-1 T2635-resistant strains; settings: ratio of IC50s
Method: as §4

[8] = system: HIV-1 mutants resistant to T20, T2635, or HP23; assay type: cell-based; settings: ratio of IC50s
Method: as §4

[9] = concentrations as high as 8 μM, 3 days, 37 °C, CCK8
[10] = Mice (i.p., n = 3), 5 mg/kg, concentration estimated from serum anti-HIV-1 activity, MODFIT

For `CCCCCCCCCCCCCCCC(=O)NCCCC[C@H](NC(=O)CCOCCOCCOCCOCCNC(=O)CNC(=O)[C@H](CO)NC(=O)CNC(=O)[C@H](CC(C)C)NC(=O)[C@H](CC(=O)O)NC(=O)[C@@H](NC(=O)[C@H](CCC(N)=O)NC(=O)[C@H](CCC(N)=O)NC(=O)[C@H](CC(N)=O)NC(=O)[C@H](CCC(N)=O)NC(=O)[C@H](CO)NC(=O)[C@H](CCCCN)NC(=O)[C@H](CCCCN)NC(=O)[C@H](CC(C)C)NC(=O)[C@@H](NC(=O)[C@H](CCC(=O)O)NC(=O)[C@H](CCC(=O)O)NC(=O)[C@@H](NC(=O)[C@H](CCCCN)NC(=O)[C@H](CCCCN)NC(=O)[C@@H](NC(=O)[C@H](Cc1ccc(O)cc1)NC(=O)[C@H](CCC(=O)O)NC(=O)[C@H](CCC(=O)O)NC(=O)[C@@H](NC(=O)[C@H](CCCCN)NC(=O)[C@H](CCCCN)NC(=O)[C@H](CCC(=O)O)NC(=O)[C@H](Cc1c[nH]c2ccccc12)NC(=O)[C@H](CCC(=O)O)NC(=O)[C@H](CCC(=O)O)NC(=O)[C@H](Cc1c[nH]c2ccccc12)NC(=O)[C@@H](NC(=O)[C@H](CCSC)NC(=O)[C@@H](N)CCC(=O)O)[C@@H](C)O)[C@@H](C)CC)[C@@H](C)CC)[C@@H](C)CC)[C@@H](C)CC)[C@@H](C)CC)C(=O)O` [YIK-C16] (H-EMTWEEWEKKIEEYIKKIEEILKKSQNQQIDLGSG[PEG4]K(Palmitoyl)-OH; N-terminus and C-terminus assumed), the “fold more potent than HP23-E6-IDL for inhibiting infection by HIV-1 T20-resistant strains” value [1] was “about 12 fold”, the “fold more potent than YIK against HIV-1IIIB infection” value (HIV-1IIIB (X4 virus) [2]) was 3.6 fold and the “maximum inhibitory activity of serum (fold of IC50; highest dilution-fold of serum causing 50% inhibition)” value (HIV-1IIIB) was “about 4500 fold”. The “serum inhibitory activity maintained for 15 h post-injection (fold of IC50)” value (HIV-1IIIB) was greater than 275 fold, the “time of maximum serum inhibitory activity post-injection” value (HIV-1IIIB) was “about 3 h” and the “non-cytotoxic concentration (8 μM) relative to IC50 for inhibiting HIV-1IIIB infection” value (MT-2 cells; 8 μM versus IC50 against HIV-1IIIB) was “about 105 fold”. For the same molecule, the “in vitro cytotoxicity to MT-2 cells” value (MT-2 cells; [9]) was “none of these peptides exhibited in vitro cytotoxicity”, the “fold more effective than HP23-E6-IDL against HIV-1Bal infection” value (HIV-1Bal (R5 virus)) was 13.3 fold and ~13 fold and the “fold more effective than YIK against HIV-1Bal infection” value (HIV-1Bal (R5 virus)) was 10.5 fold. For the same molecule, the “fold more potent than HP23-E6-IDL for inhibiting infection by HIV-1 HP23-resistant strains” value [3] was roughly 26 fold, the “inhibition of HIV-1IIIB infection, virus preincubated with peptide, washed” value (HIV-1IIIB (X4 virus) [4]) was “could inhibit HIV-1IIIB infection when the unbound peptide was washed away” and the “non-cytotoxic concentration (8 μM) relative to IC50 for inhibiting HIV-1Bal infection” value (M7 cells; 8 μM versus IC50 against HIV-1Bal) was roughly 131 fold. For the same molecule, the “in vitro cytotoxicity to M7 cells” value (M7 cells; [9]) was “none of these peptides exhibited in vitro cytotoxicity”, the AUC0-15h [5, 10] was 14900 ± 3800 ng·h/mL and the AUCINF_obs [5, 10] was 15000 ± 3700 ng·h/mL. It also gave a Cl_F_obs/Cl_obs [5, 10] of 5.773 ± 1.27 mL/min/kg, a Cmax [5, 10] of 2200 ± 100 ng/mL and an MRTlast [5, 10] of 9.5 ± 5.1 h. It also gave a Tmax [5, 10] of 4.0 ± 1.7 h, a Vz_F_obs/Vz_obs [5, 10] of 2.7388 ± 0.7407 L/kg and a t½ [5, 10] of 5.9 ± 3.2 h. The “fold longer serum half-life than HP23-E6-IDL” value ([5]; mice, i.p.) was roughly 5.9 fold, the “potency relative to YIK and HP23-E6-IDL in inhibiting HIV-1-mediated cell-cell fusion” value [6] was “about two-fold more potent” and the “fold more potent than HP23-E6-IDL for inhibiting infection by HIV-1 T2635-resistant strains” value [7] was “about 12 fold”. The “fold more effective than HP23-E6-IDL against infection by HIV-1 mutants resistant to T20, T2635 and HP23” value [8] was “about 16 fold”.
